Assays:
[1] = biological target: T1, CYP2C19 (Homo sapiens, UniProt P33261); assay: CYP inhibition in human liver microsomes, CYP2C19; format: in vitro ADME
T1 construct: In human liver microsomes; from tissue; host or cells: human liver microsomes

[2] = test system: AML cell lines with TP53 loss or mutation; assay: Activity against AML cell lines with TP53 loss or mutation; format: cell-based
Description: The remaining 5 cell lines were either medium-sensitive or completely resistant to Compound 1; the unresponsiveness to Compound 1 treatment was associated with inadequate accumulation of p53 protein and/or its transcriptional targets BAX and PUMA.

[3] = Dose toxicity and toxicokinetics study in rats; format: in vivo; details: for AUC / Cmax: both sexes; for AUC / Cmax / NOAEL: rat, in vivo, po; for NOAEL: female, oral gavage, read-out: NOAEL (females)
Method: Additionally, control animals were dosed with a vehicle using a combination of both dosing regimens. Recovery of test article-related effects was evaluated during a 4-week recovery period.
Animals in Regimen 1 were dosed for 7 consecutive days in each 4-week cycle for 2 cycles (0.3 or 3 mg/kg on Days 1-7 and 29-35), whereas animals in Regimen 2 were dosed twice weekly for 4 weeks (0.5 or 5 mg/kg on Days 1, 4, 8, 11, 15, 18, 22 and 25). End of dosing necropsy was performed on the day after the last dose administration. A 4-week recovery period was included to assess reversibility of findings.

[4] = biological target: T2, hERG potassium channel (Homo sapiens, UniProt Q12809); assay: hERG IonWorks Barracuda patch clamp electrophysiology assay; format: cell-based; details: human, HEK-293 cells expressing cloned hERG potassium channel; at 30 μM; read-out: percent inhibition
T2 construct: expressed in transfected cells; host or cells: HEK-293
T2 sequence (Q12809 whole entry): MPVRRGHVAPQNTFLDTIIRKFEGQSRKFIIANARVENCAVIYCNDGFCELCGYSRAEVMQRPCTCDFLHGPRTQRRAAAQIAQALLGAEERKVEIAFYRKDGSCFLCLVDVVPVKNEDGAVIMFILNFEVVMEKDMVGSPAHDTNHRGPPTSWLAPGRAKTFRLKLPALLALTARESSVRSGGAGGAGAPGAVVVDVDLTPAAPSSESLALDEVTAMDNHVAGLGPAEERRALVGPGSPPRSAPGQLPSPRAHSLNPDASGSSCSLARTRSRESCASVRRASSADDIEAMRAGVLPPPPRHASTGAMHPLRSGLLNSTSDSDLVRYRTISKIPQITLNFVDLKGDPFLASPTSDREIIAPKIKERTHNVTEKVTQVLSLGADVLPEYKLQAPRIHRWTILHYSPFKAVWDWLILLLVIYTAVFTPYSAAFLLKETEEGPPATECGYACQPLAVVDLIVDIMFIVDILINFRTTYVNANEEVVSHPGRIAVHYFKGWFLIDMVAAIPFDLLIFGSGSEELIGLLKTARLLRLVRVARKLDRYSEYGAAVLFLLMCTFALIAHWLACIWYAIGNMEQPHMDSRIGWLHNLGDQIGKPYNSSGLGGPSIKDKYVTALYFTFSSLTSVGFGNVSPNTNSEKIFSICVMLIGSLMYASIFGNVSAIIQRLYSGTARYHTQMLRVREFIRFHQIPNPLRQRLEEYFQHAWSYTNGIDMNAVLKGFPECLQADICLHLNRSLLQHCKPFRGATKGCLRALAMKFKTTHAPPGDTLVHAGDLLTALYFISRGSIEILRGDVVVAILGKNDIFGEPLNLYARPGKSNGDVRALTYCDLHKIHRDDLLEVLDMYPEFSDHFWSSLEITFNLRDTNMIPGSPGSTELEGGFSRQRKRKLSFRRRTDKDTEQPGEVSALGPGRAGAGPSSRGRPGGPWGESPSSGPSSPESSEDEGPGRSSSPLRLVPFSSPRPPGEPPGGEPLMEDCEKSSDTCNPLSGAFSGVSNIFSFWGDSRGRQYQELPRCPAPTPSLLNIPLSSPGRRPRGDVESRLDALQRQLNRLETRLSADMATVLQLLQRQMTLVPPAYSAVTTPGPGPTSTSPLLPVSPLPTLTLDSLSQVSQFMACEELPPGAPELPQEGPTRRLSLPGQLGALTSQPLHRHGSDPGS
Method: (§1) The effect of Compound 1 on the cloned hERG potassium channel expressed in the HEK-293 cell line was also investigated. […] The percent inhibition at 30 μM was 19%.

[5] = biological target: T3, cloned hERG potassium channel expressed in the HEK-293 cell line (Homo sapiens, UniProt Q12809); assay: as above; format: cell-based
T3 construct: expressed in transfected cells; host or cells: HEK-293
T3 sequence (Q12809 whole entry): as above
Method: as §1

[6] = GLP repeat-dose toxicity and toxicokinetics study in monkeys; format: in vivo, cynomolgus monkeys; details: for AUC / Cmax: plasma, po
Method: Cardiovascular assessments (electrocardiograms [ECGs] and heart rates) were conducted in conscious cynomolgus monkeys as part of the Good Laboratory Practice (GLP)-compliant repeat dose toxicity study. In this study, Compound 1 was administered by oral gavage to Cynomolgus monkeys (5/sex/group) in Groups 1-5 at doses of 0 (0.5% (w/v) Methylcellulose, 0.25% (v/v) Tween 80 in 50 mM citrate buffer pH 3), 0.03, 0.1, 0.1 and 0.3 mg/kg, respectively, intermittently using 2 different dosing regimens. Groups 2 and 3 animals were dosed for 7 consecutive days in each 4-week cycle for 2 cycles (Regimen 1: on Days 1-7 and 29-35), whereas Groups 4 and 5 animals were dosed twice weekly for 4 weeks (Regimen 2: on Days 1, 4, 8, 11, 15, 18, 22 and 25). A combination of both dosing regimens (Days 1-7, 8, 11, 15, 18, 22, 25, and 29-35) was used for administration of the vehicle to the control animals. A 9-lead ECG recording was made on all animal during pretest and on all animals in Groups 4 and 5 on Day 22 (1 hour postdose±15 minutes) and on all animals in Groups 1, 2 and 3 during Week 5 (1 hour postdose±15 minutes) using standard limb leads I, II and III; augmented leads aVR, aVL and aVF as well as chest leads MV1, MV2 and MV3. All ECGs were performed while the unanesthetized animal was sitting in an up-right position in a restraint chair. Qualitative (visual inspection) and quantitative assessments including heart rates and PR, QRS, RR, QT, and QTc intervals were performed. QTc was calculated using Bazett's formula.
In a repeat-dose toxicity study in monkeys, Compound 1 was administered by oral gavage intermittently using 2 different dosing regimens. Animals in Regimen 1 were dosed for 7 consecutive days in each 4-week cycle for 2 cycles (0.03 or 0.1 mg/kg on Days 1-7 and 29-35), whereas animals in Regimen 2 were dosed twice weekly for 4 weeks (0.1 or 0.3 mg/kg on Days 1, 4, 8, 11, 15, 18, 22 and 25).
End of dosing necropsy was performed on the day after the last dose administration. A 4-week recovery period was included to assess reversibility of findings. Administration of Compound 1 was associated with mortality at 0.1 mg/kg using Regimen 1 during the recovery phase. Three animals (2 males and 1 female) were euthanized for welfare reasons and one female was found dead due to reduction (marked to severe) in BM cellularity resulting in severe leukopenia and likely bacteremia, as well as in severe thrombocytopenia with disseminated petechial hemorrhage.

[7] = 0.3 mg/kg, Regimen 1, sexes combined
[8] = 0.5 mg/kg, Regimen 2, sexes combined
[9] = Regimen 2 (twice weekly for 4 weeks)
[10] = both sexes, cynomolgus monkey, 0.03 mg/kg, Regimen 1, sexes combined
[11] = both sexes, cynomolgus monkey, 0.1 mg/kg, Regimen 2, sexes combined

T1 sequence (P33261 whole entry): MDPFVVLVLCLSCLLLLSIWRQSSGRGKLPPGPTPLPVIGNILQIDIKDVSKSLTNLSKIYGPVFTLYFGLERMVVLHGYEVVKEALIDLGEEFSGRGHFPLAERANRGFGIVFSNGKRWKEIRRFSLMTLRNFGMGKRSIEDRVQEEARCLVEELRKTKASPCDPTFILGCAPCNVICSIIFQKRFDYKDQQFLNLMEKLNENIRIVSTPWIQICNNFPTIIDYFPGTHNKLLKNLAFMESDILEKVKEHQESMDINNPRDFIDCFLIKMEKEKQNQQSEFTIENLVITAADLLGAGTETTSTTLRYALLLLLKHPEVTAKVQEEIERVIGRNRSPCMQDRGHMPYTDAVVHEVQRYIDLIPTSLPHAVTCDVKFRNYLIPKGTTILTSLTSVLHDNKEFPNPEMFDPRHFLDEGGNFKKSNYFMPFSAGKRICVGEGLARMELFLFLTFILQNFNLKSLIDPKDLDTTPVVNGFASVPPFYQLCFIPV

SMILES: O=C1CC[C@H](N2Cc3cc(C(=O)N[C@H](c4ncccc4Cl)C(F)(F)F)ccc3C2=O)C(=O)N1 [Compound 1, N-((R)-1-(3-chloropyridin-2-yl)-2,2,2-trifluoroethyl)-2-((S)-2,6-dioxopiperidin-3-yl)-1-oxoisoindoline-5-carboxamide]
- time-dependent inhibition ([1]; CYP2C19, 30-minute preincubation with NADPH): not a time-dependent inhibition
- inhibitory effect ([1]; human liver microsomes, CYP2C19): ≤ 25%
- sensitivity to treatment [2]: insensitive
- severely toxic dose in 10% of the animals (STD 10) ([3]; Regimen 1): 0.3 mg/kg
- severely toxic dose in 10% of the animals (STD 10) ([3]; Regimen 2): 0.5 mg/kg
- NOAEL (males) ([3]; both regimens): not identified
- AUC [3, 7]: 761 ng·h/mL
- Cmax [3, 7]: 225 ng/mL
- AUC [3, 8]: 1200 ng·h/mL
- Cmax [3, 8]: 263 ng/mL
- NOAEL ([3]; Regimen 1 (Days 1-7 and 29-35)): 0.3 mg/kg
- NOAEL [3, 9]: 0.5 mg/kg
- inhibition at 30 µM [4]: 19%
- precipitation in the assay ([5]; concentrations up to 30 μM): did not precipitate
- IC50 ([5]; hERG, IonWorks Barracuda patch clamp): > 30 µM
- lethality ([6]; 0.1 mg/kg, Regimen 1, during the recovery phase): mortality
- sex-combined mean maximum observed plasma concentration ([6]; 0.1 mg/kg/day, Regimen 1, Day 34): 31.9 ng/mL
- fold higher than anticipated human Cmax of 0.4 ng/mL ([6]; 0.1 mg/kg/day, Regimen 1, Day 34 vs human starting dose 0.1 mg/day): approximately 80 fold
- sex-combined mean maximum observed plasma concentration ([6]; 0.3 mg/kg/day, Regimen 2, Day 15): 62.6 ng/mL
- fold higher than anticipated human Cmax of 0.4 ng/mL ([6]; 0.3 mg/kg/day, Regimen 2, Day 15 vs human starting dose 0.1 mg/day): ~157 fold
- highest non-STD (HNSTD) ([6]; Regimen 1): 0.03 mg/kg
- highest non-STD (HNSTD) ([6]; Regimen 2): 0.1 mg/kg
- NOAEL [6, 9]: not identified
- NOAEL ([6]; both sexes, cynomolgus monkey, in vivo, Regimen 1 (Days 1-7 and 29-35), oral gavage, read-out: NOAEL): 0.03 mg/kg
- AUC [6, 10]: 51.4 ng·h/mL
- Cmax [6, 10]: 9.95 ng/mL
- AUC [6, 11]: 173 ng·h/mL
- Cmax [6, 11]: 21.5 ng/mL
